According to PubChem BioAssay (NCI):
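Where inhibition never reached the appropriate level, the endpoint shown equals the highest concentration tested. Otherwise, values were interpolated linearly from a five-concentration, 48-hour dose response in 96-well plates. TGI is the concentration that stops growth completely.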

Columns and labels:
Assay in all cases: NCI tumour cell line growth inhibition, 48 h
[1] = test system: 786-0 renal
[2] = test system: A498 renal
[3] = test system: A549 NSCLC
[4] = test system: CAKI-1 renal
[5] = test system: CCRF-CEM leukemia
[6] = test system: COLO 205 colon
[7] = test system: DLD-1 colon
[8] = test system: DMS 114 small cell lung
[9] = test system: DMS 273 small cell lung
[10] = test system: EKVX NSCLC
[11] = test system: HCC-2998 colon
[12] = test system: HCT-116 colon
[13] = test system: HCT-15 colon
[14] = test system: HL-60(TB) leukemia
[15] = test system: HOP-18 NSCLC
[16] = test system: HOP-62 NSCLC
[17] = test system: HOP-92 NSCLC
[18] = test system: HT29 colon
[19] = test system: IGROV1 ovarian
[20] = test system: K-562 leukemia
[21] = test system: KM12 colon
[22] = test system: KM20L2 colon
[23] = test system: LOX IMVI melanoma
[24] = test system: LXFL 529 NSCLC
[25] = test system: M14 melanoma
[26] = test system: M19-MEL melanoma
[27] = test system: MALME-3M melanoma
[28] = test system: MOLT-4 leukemia
[29] = test system: NCI-H226 lung
[30] = test system: NCI-H23 lung
[31] = test system: NCI-H460 lung
[32] = test system: NCI-H522 lung
[33] = test system: OVCAR-3 ovarian
[34] = test system: OVCAR-5 ovarian
[35] = test system: OVCAR-8 ovarian
[36] = test system: RPMI-8226 leukemia
[37] = test system: RXF 393 renal
[38] = test system: RXF-631 renal
[39] = test system: SF-268 CNS
[40] = test system: SF-295 CNS
[41] = test system: SF-539 CNS
[42] = test system: SK-MEL-2 melanoma
[43] = test system: SK-MEL-28 melanoma
[44] = test system: SK-MEL-5 melanoma
[45] = test system: SK-OV-3 ovarian
[46] = test system: SN12C renal
[47] = test system: SNB-19 CNS
[48] = test system: SNB-78 CNS
[49] = test system: SR leukemia
[50] = test system: SW-620 colon
[51] = test system: TK-10 renal
[52] = test system: U251 CNS
[53] = test system: UACC-257 melanoma
[54] = test system: UACC-62 melanoma
[55] = test system: UO-31 renal
[56] = test system: ACHN renal
[57] = test system: OVCAR-4 ovarian
[58] = test system: SNB-75 CNS

Measured: TGI

CC(=O)NNc1nc(C)c(C(=O)/C=C/c2cccc([N+](=O)[O-])c2)s1
not listed: [56] | [57] | [58]
> 100 µM: all other assays above

CC12OC3(C)OC(=O)C(c4ccccc4)(O1)C3(C)O2 (stereo not given)
not listed: [16] | [31] | [49]
> 100 µM: all other assays above
